Like-named read-outs stand apart in the source and are kept apart here.
How the values were obtained:
SHV-5 ec308 [1] = assay: Aztreonam potentiation (MPC@4); format: cell-based; details: minimum BLI concentration inhibiting growth with 4 μg/mL aztreonam
TEM-10 ec302 = format: cell-based
CMY-6 EC1010 = assay: Aztreonam potentiation (MPC@4); format: cell-based; details: minimum BLI concentration inhibiting growth with 4 μg/mL aztreonam
ECL1002 [2] = assay: Aztreonam potentiation (MPC@4); format: cell-based; details: minimum BLI concentration inhibiting growth with 4 μg/mL aztreonam
CTX-M-15 KP1009 [3] = assay: Aztreonam potentiation (MPC@4); format: cell-based; details: minimum BLI concentration inhibiting growth with 4 μg/mL aztreonam
KP1004 KPC-2 = assay: Biapenem potentiation (MPC@1); format: cell-based; details: minimum BLI concentration inhibiting growth with 1 μg/mL biapenem
Method: (§1) Biapenem was present in the test medium at 1 μg/mL. […] Table 3 summarizes the BLI potency of biapenem potentiation (MPC@1) for two strains overexpressing class A (KPC) and class D (OXA-48) carbapenemases. Biapenem MIC for each strain is also shown.

OXA-48 KP1086 = assay: Biapenem potentiation (MPC@1); format: cell-based; details: minimum BLI concentration inhibiting growth with 1 μg/mL biapenem
Method: as §1

ECL1002 [4] = format: cell-based; details: minimum BLI concentration inhibiting growth with tigemonam at 4 μg/mL
KPC-2 KP1004 = assay: Aztreonam potentiation (MPC@4); format: cell-based; details: minimum BLI concentration inhibiting growth with 4 μg/mL aztreonam
CTX-M-15 KP1009 [5] = format: cell-based
SHV-12 = SHV-12 (Klebsiella pneumoniae, UniProt P0AD64, E235K/G234S/L31Q); assay: Inhibition of nitrocefin cleavage by purified enzyme (Ki); format: biochemical; details: nitrocefin reporter substrate, 10 min preincubation; read-out: Ki (SHV-12, NCF)
SHV-12, sequence (P0AD64 22-286 L31Q/G234S/E235K): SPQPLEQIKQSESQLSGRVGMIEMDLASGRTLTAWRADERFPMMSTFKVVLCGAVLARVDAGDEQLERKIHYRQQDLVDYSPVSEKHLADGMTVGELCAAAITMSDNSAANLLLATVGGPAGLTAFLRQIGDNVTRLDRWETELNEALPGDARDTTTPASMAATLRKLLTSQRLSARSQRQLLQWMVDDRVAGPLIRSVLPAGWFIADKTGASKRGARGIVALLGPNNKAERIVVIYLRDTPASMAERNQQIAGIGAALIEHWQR
Method: Purified enzymes were mixed with various concentrations of inhibitors in reaction buffer and incubated for 10 min at room temperature. Nitrocefin was added and substrate cleavage profiles were recorded at 490 nm every 10 sec for 10 min.

CTX-M-14 KP1005 = format: cell-based
SHV-5 ec308 [6] = format: cell-based; details: minimum BLI concentration inhibiting growth with tigemonam at 4 μg/mL
[7] = Intravenous pharmacokinetics; format: in vivo; details: rat, plasma, rats, IV infusion over 0.5 hours, read-out: Free Cl (converted)
Method: Rats (n=3 per compound) were administered by a single infusion. IV doses were infused over 0.5 hours via an indwelling femoral vein cannula. Plasma (˜0.3 mL) samples were collected from each rat at designated time points up to 24 hours. Blood samples were centrifuged within 5 min of collection at 12000 g for 5 min to obtain plasma. The plasma samples were stored at −80° C. until analyzed. Data were analyzed using WinNonlin.

Row | SMILES | AZT MPC4 SHV-5 ec308 (SHV-5 ec308 [1]) | TIG MPC4 TEM-10 ec302 (TEM-10 ec302) | AZT MPC4 CMY-6 EC1010 (CMY-6 EC1010) | AZT MPC4 ECL1002 (ECL1002 [2]) | AZT MPC4 CTX-M-15 KP1009 (CTX-M-15 KP1009 [3]) | BPM MPC1 KP1004 KPC-2 (KP1004 KPC-2) | BPM MPC1 OXA-48 KP1086 (OXA-48 KP1086) | TIG MPC4 ECL1002 (ECL1002 [4]) | AZT MPC4 KPC-2 KP1004 (KPC-2 KP1004) | TIG MPC4 CTX-M-15 KP1009 (CTX-M-15 KP1009 [5]) | Ki (SHV-12) | TIG MPC4 CTX-M-14 KP1005 (CTX-M-14 KP1005) | TIG MPC4 SHV-5 ec308 (SHV-5 ec308 [6]) | clearance ([7]; dose 20 mg/kg) | clearance ([7]; dose 10 mg/kg)
1 | O=C(Cc1cccs1)N[C@H]1Cc2cccc(C(=O)O)c2OB1O [CPD A, reference compound] | X (MIC of less than 1 μg/mL) | Z (key: X: MIC of less than 1 μg/mL; Y: MIC of 1 μg/mL to 10 μg/mL; Z: MIC of greater than 10 μg/mL) | Y (MIC of 1 μg/mL to 10 μg/mL) | Y (MIC of 1 μg/mL to 10 μg/mL) | Y (MIC of 1 μg/mL to 10 μg/mL) | X (MIC of less than 1 μg/mL) | Y (MIC of 1 μg/mL to 10 μg/mL) | Y (MIC of 1 μg/mL to 10 μg/mL) | Y (MIC of 1 μg/mL to 10 μg/mL) | Y (key: X: MIC of less than 1 μg/mL; Y: MIC of 1 μg/mL to 10 μg/mL; Z: MIC of greater than 10 μg/mL) | < 1 nM | Y (key: X: MIC of less than 1 μg/mL; Y: MIC of 1 μg/mL to 10 μg/mL; Z: MIC of greater than 10 μg/mL) | Y (MIC of 1 μg/mL to 10 μg/mL) | – | –
2 | O=C(CSC(F)F)N[C@H]1Cc2cccc(C(=O)O)c2OB1O [Compound 3, (R)-3-(2-(difluoromethylthio)acetamido)-2-hydroxy-3,4-dihydro-2H-benzo[e][1,2]oxaborinine-8-carboxylic acid] | X (MIC of less than 1 μg/mL) | Y (key: X: MIC of less than 1 μg/mL; Y: MIC of 1 μg/mL to 10 μg/mL; Z: MIC of greater than 10 μg/mL) | X (MIC of less than 1 μg/mL) | Y (MIC of 1 μg/mL to 10 μg/mL) | – | X (MIC of less than 1 μg/mL) | Y (MIC of 1 μg/mL to 10 μg/mL) | Y (MIC of 1 μg/mL to 10 μg/mL) | Y (MIC of 1 μg/mL to 10 μg/mL) | X (key: X: MIC of less than 1 μg/mL; Y: MIC of 1 μg/mL to 10 μg/mL; Z: MIC of greater than 10 μg/mL) | < 1 nM | X (key: X: MIC of less than 1 μg/mL; Y: MIC of 1 μg/mL to 10 μg/mL; Z: MIC of greater than 10 μg/mL) | X (MIC of less than 1 μg/mL) | 40.8 mL/min/kg | –
3 | O=CN[C@H]1Cc2cccc(C(=O)O)c2OB1O [Compound 4, (R)-3-formamido-2-hydroxy-3,4-dihydro-2H-benzo[e][1,2]oxaborinine-8-carboxylic acid] | Y (MIC of 1 μg/mL to 10 μg/mL) | Z (key: X: MIC of less than 1 μg/mL; Y: MIC of 1 μg/mL to 10 μg/mL; Z: MIC of greater than 10 μg/mL) | – | Y (MIC of 1 μg/mL to 10 μg/mL) | Y (MIC of 1 μg/mL to 10 μg/mL) | X (MIC of less than 1 μg/mL) | Y (MIC of 1 μg/mL to 10 μg/mL) | X (MIC of less than 1 μg/mL) | X (MIC of less than 1 μg/mL) | Y (key: X: MIC of less than 1 μg/mL; Y: MIC of 1 μg/mL to 10 μg/mL; Z: MIC of greater than 10 μg/mL) | 1 to 10 nM | Y (key: X: MIC of less than 1 μg/mL; Y: MIC of 1 μg/mL to 10 μg/mL; Z: MIC of greater than 10 μg/mL) | Y (MIC of 1 μg/mL to 10 μg/mL) | 28.8 mL/min/kg | –
4 | Nc1nnc(SCC(=O)N[C@H]2Cc3cccc(C(=O)O)c3OB2O)s1 [Compound 5, (R)-3-(2-(5-amino-1,3,4-thiadiazol-2-ylthio)acetamido)-2-hydroxy-3,4-dihydro-2H-benzo[e][1,2]oxaborinine-8-carboxylic acid] | X (MIC of less than 1 μg/mL) | – | – | Y (MIC of 1 μg/mL to 10 μg/mL) | – | X (MIC of less than 1 μg/mL) | Y (MIC of 1 μg/mL to 10 μg/mL) | X (MIC of less than 1 μg/mL) | Y (MIC of 1 μg/mL to 10 μg/mL) | X (key: X: MIC of less than 1 μg/mL; Y: MIC of 1 μg/mL to 10 μg/mL; Z: MIC of greater than 10 μg/mL) | – | X (key: X: MIC of less than 1 μg/mL; Y: MIC of 1 μg/mL to 10 μg/mL; Z: MIC of greater than 10 μg/mL) | Y (MIC of 1 μg/mL to 10 μg/mL) | 28.5 mL/min/kg | –
5 | O=C(CSc1nncs1)N[C@H]1Cc2cccc(C(=O)O)c2OB1O [Compound 7, (R)-3-(2-(1,3,4-thiadiazol-2-ylthio)acetamido)-2-hydroxy-3,4-dihydro-2H-benzo[e][1,2]oxaborinine-8-carboxylic acid] | X (MIC of less than 1 μg/mL) | – | – | Y (MIC of 1 μg/mL to 10 μg/mL) | – | X (MIC of less than 1 μg/mL) | Y (MIC of 1 μg/mL to 10 μg/mL) | Y (MIC of 1 μg/mL to 10 μg/mL) | Y (MIC of 1 μg/mL to 10 μg/mL) | X (key: X: MIC of less than 1 μg/mL; Y: MIC of 1 μg/mL to 10 μg/mL; Z: MIC of greater than 10 μg/mL) | < 1 nM | X (key: X: MIC of less than 1 μg/mL; Y: MIC of 1 μg/mL to 10 μg/mL; Z: MIC of greater than 10 μg/mL) | X (MIC of less than 1 μg/mL) | 60.7 mL/min/kg | –
6 | [N-]=[N+]=NCC(=O)N[C@H]1Cc2cccc(C(=O)O)c2OB1O [Compound 8, (R)-3-(2-azidoacetamido)-2-hydroxy-3,4-dihydro-2H-benzo[e][1,2]oxaborinine-8-carboxylic acid] | X (MIC of less than 1 μg/mL) | – | – | Y (MIC of 1 μg/mL to 10 μg/mL) | – | X (MIC of less than 1 μg/mL) | Y (MIC of 1 μg/mL to 10 μg/mL) | X (MIC of less than 1 μg/mL) | X (MIC of less than 1 μg/mL) | X (key: X: MIC of less than 1 μg/mL; Y: MIC of 1 μg/mL to 10 μg/mL; Z: MIC of greater than 10 μg/mL) | < 1 nM | X (key: X: MIC of less than 1 μg/mL; Y: MIC of 1 μg/mL to 10 μg/mL; Z: MIC of greater than 10 μg/mL) | Y (MIC of 1 μg/mL to 10 μg/mL) | – | 35 mL/min/kg
7 | O=C(N[C@H]1Cc2cccc(C(=O)O)c2OB1O)c1cccnc1 [Compound 12, (R)-2-hydroxy-3-(nicotinamido)-3,4-dihydro-2H-benzo[e][1,2]oxaborinine-8-carboxylic acid] | Y (MIC of 1 μg/mL to 10 μg/mL) | – | – | X (MIC of less than 1 μg/mL) | – | X (MIC of less than 1 μg/mL) | Y (MIC of 1 μg/mL to 10 μg/mL) | X (MIC of less than 1 μg/mL) | Y (MIC of 1 μg/mL to 10 μg/mL) | Y (key: X: MIC of less than 1 μg/mL; Y: MIC of 1 μg/mL to 10 μg/mL; Z: MIC of greater than 10 μg/mL) | < 1 nM | Y (key: X: MIC of less than 1 μg/mL; Y: MIC of 1 μg/mL to 10 μg/mL; Z: MIC of greater than 10 μg/mL) | Y (MIC of 1 μg/mL to 10 μg/mL) | – | 45.7 mL/min/kg
8 | Nc1nnc(C(=O)N[C@H]2Cc3cccc(C(=O)O)c3OB2O)s1 [Compound 19, (R)-3-(5-amino-1,3,4-thiadiazole-2-carboxamido)-2-hydroxy-3,4-dihydro-2H-benzo[e][1,2]oxaborinine-8-carboxylic acid] | X (MIC of less than 1 μg/mL) | Y (key: X: MIC of less than 1 μg/mL; Y: MIC of 1 μg/mL to 10 μg/mL; Z: MIC of greater than 10 μg/mL) | X (MIC of less than 1 μg/mL) | Y (MIC of 1 μg/mL to 10 μg/mL) | – | X (MIC of less than 1 μg/mL) | Y (MIC of 1 μg/mL to 10 μg/mL) | Y (MIC of 1 μg/mL to 10 μg/mL) | Y (MIC of 1 μg/mL to 10 μg/mL) | Y (key: X: MIC of less than 1 μg/mL; Y: MIC of 1 μg/mL to 10 μg/mL; Z: MIC of greater than 10 μg/mL) | < 1 nM | Y (key: X: MIC of less than 1 μg/mL; Y: MIC of 1 μg/mL to 10 μg/mL; Z: MIC of greater than 10 μg/mL) | X (MIC of less than 1 μg/mL) | – | 20.8 mL/min/kg

From US9642869B2, “Boronic acid derivatives and therapeutic uses thereof” (Rempex Pharmaceuticals, Inc., priority 2013, dated 2017)
